System: NanoLuc-PEST expressing L. mexicana axenic amastigotes
Assay: microbe, parasite or virus in culture
Format: cell-based
Settings: for viability at 2 µM / viability at 10 µM: Leishmania mexicana, read-out: Relative Bioluminescence (%); for viability at 2 µM / viability at 10 µM / Relative Bioluminescence (%): 72 hours, relative to DMSO only control, n = 4; for EC50: hit compounds from the axenic amastigote screen, S3 Table, read-out: EC50, Axenic Amastigotes

Row | Structure (SMILES) | viability at 2 µM (2 µM compound) [%] | viability at 10 µM (10 µM compound) [%] | Relative Bioluminescence (%) (2 µM compound) | Relative Bioluminescence (%) (10 µM compound) | EC50 [µM]
1 | CC(=O)NC[C@H]1CN(c2ccc(-c3ccc(CNCc4cnn[nH]4)cc3)c(F)c2)C(=O)O1 [MMV688327, Radezolid, reference compound] | 87.8 | 126 | – | – | –
2 | CC(=O)N1CCN(c2ccc(Oc3ccc(Cl)cc3O)cc2)CC1 [MMV688330] | – | – | 97.96 | 79.07 | –
3 | Nc1nc(N)c2c3c(sc2n1)CN(Cc1ccccc1)CC3 [MMV688345] | – | – | 105.25 | 69.94 | –
4 | COC(=O)c1ccc(F)cc1NS(=O)(=O)c1cccc(-c2cnn(Cc3ccccc3)c2)c1 [MMV688350] | – | – | 101.75 | 91.24 | –
5 | O=C1[C@@H](Oc2ccccc2)[C@@H](c2ccc(Cl)cc2)N1CCn1cnc2c(NCc3ccccc3)ncnc21 [MMV688352] | – | – | 66.17 | 8.52 | –
6 | c1cc(C2=NCCN2)cc(-c2cc(-c3ccc(C4=NCCN4)cc3)no2)c1 [MMV688361] | – | – | 96.04 | 78.94 | –
7 | COc1cc(C2=NCCN2)cc2cc(-c3ccc(C4=NCCN4)cc3)oc12 [MMV688362] | – | – | 95.50 | 90.68 | –
8 | CC(C)(C)OC(=O)N1CCC(Cn2nc(-c3cnc4ccccc4c3)c3c(N)ncnc32)CC1 [MMV688364] | – | – | 80.73 | 58.45 | –
9 | NCCN(C(=O)c1ccc(Cl)cc1Cl)c1ccc(OCc2ccc(Cl)cc2)cc1 [MMV688371] | – | – | 95.57 | 61.94 | –
10 | O=C(Nc1ccc(F)c(-c2nc3ncc(-c4ccccc4)cc3[nH]2)c1)N1CCCC1 [MMV688372] | – | – | 17.89 | 6.87 | –
11 | COc1cc(C2=NCCN2)ccc1-c1cn(-c2cccc(C3=NCCN3)c2)nn1 [MMV688407] | – | – | 99.20 | 50.94 | –
12 | CC1=Nc2ccc(Cl)cc2C(c2ccccc2)N1CCNC(=O)CN(C)C (centres unmarked) [MMV688410] | – | – | 114.60 | 63.15 | –
13 | Nc1ncnc2c1c(-c1cnc3ccccc3c1)nn2CC1CCNCC1 [MMV688411] | – | – | 105.51 | 65.85 | –
14 | CO[C@@H]1CN(c2ccc(C#CC3(O)CN4CCC3CC4)c(Cc3ccccc3)n2)C[C@H]1O (some centres unmarked) [MMV688415] | – | – | 63.04 | 31.88 | –
15 | CC(C)(C)OC(=O)N1CCN(c2nccc(-c3ccc(-c4ccc(Cl)cc4)s3)n2)CC1 [MMV688416] | – | – | 76.11 | 66.54 | –
16 | CC(C)n1nc(-c2cc3c(Cl)cccc3[nH]2)c2c(N)ncnc21 [MMV688417] | – | – | 76.07 | -0.98 | –
17 | Cn1ccnc1CNCCS(=O)(=O)c1cccc(Nc2ccc(-c3cccc(F)c3)cn2)c1 [MMV688466] | – | – | 108.11 | 117.26 | –
18 | CCCCN(CCCC)c1c(C#N)cc(S(=O)(=O)Nc2ccccc2)cc1C#N [MMV688467] | – | – | 6.98 | 2.46 | 1.65
19 | Nc1ncnc2n[nH]c(Cc3cccc4ccccc34)c12 [MMV688469] | – | – | 103.98 | 53.28 | –
20 | CS(=O)(=O)N1CCC(CCn2nc(Cc3cccc4ccccc34)c3c(N)ncnc32)CC1 [MMV688470] | – | – | 96.68 | 53.17 | –
21 | CC(C(=O)Nc1ccc2oc(-c3ccncc3)nc2c1)c1ccccc1 (centres unmarked) [MMV688471] | – | – | 59.14 | 49.33 | –
22 | CC(Oc1cccc(Cl)c1)C(=O)Nc1ccc2oc(-c3ccncc3)nc2c1 (centres unmarked) [MMV688472] | – | – | 83.48 | 74.96 | –
23 | COc1cc(C2=NCCN2)ccc1-n1cc(-c2cccc(C3=NCCN3)c2)nn1 [MMV688474] | – | – | 77.71 | 76.43 | –
24 | CC(=O)NCC1CN(c2ccc(-c3ccc(CO)cc3)c(F)c2)C(=O)O1 (centres unmarked) [MMV688508] | – | – | 98.16 | 65.29 | –

Row | Structure (SMILES) | viability at 2 µM (2 µM compound) [%] | viability at 10 µM (10 µM compound) [%] | Relative Bioluminescence (%) (2 µM compound) | Relative Bioluminescence (%) (10 µM compound) | EC50 [µM]
25 | O=C(OCc1ccccc1)N1CCC(c2cc(-c3ccncc3)c(-c3ccc(F)cc3)[nH]2)CC1 [MMV688509] | – | – | 70.28 | 27.84 | –
26 | N=C(N)c1ccc(-c2cc(-c3ccccc3)on2)cc1 [MMV688514] | – | – | 40.80 | 34.58 | –
27 | CC(C)(C)C(=O)N(CCCCCCN1C[C@H](O)[C@@H](O)[C@H](O)[C@H]1CO)C1CCCCCC1 [MMV688543] | – | – | 65.10 | 39.32 | –
28 | COc1ccc(C2=NCCN2)cc1-c1cn(-c2cccc(C3=NCCN3)c2)nn1 [MMV688547] | – | – | 85.85 | 128.07 | –
29 | CC(C)(C)n1nc(-c2ccccc2)c2c(N)ncnc21 [MMV688548] | – | – | 78.88 | 77.20 | –
30 | CCc1ccccc1-n1c(C)cn2c3c(=O)n(C(C(=O)OC)C(C)C)c(=O)n(C)c3nc12 (centres unmarked) [MMV688550] | – | – | 66.32 | 56.13 | –
31 | Cc1nn(C(=O)Nc2cccc(C(F)(F)F)c2)c(C)c1Sc1ncccn1 [MMV688552] | – | – | 71.00 | 47.85 | –
32 | O=C(NCc1ccoc1)N1CCN(Cc2ccc3c(c2)OCO3)CC1 [MMV688553] | – | – | 90.94 | 98.31 | –
33 | CNc1snc(C)c1C(=O)NCCOc1ccc(OC)cc1 [MMV688554] | – | – | 117.68 | 66.57 | –
34 | O=C(NCc1ccco1)N1CCN(Cc2ccc(Cl)s2)CC1 [MMV688555] | – | – | 63.56 | 83.23 | –
35 | NCC(c1cccs1)S(=O)(=O)c1ccccc1 (centres unmarked) [MMV688557] | – | – | 71.96 | 58.46 | –
36 | CN1CCC(c2cc(-c3ccncc3)c(-c3ccc(F)cc3)[nH]2)CC1 [MMV688703] | – | – | 74.84 | 81.84 | –
37 | Cc1cc2nc(NC(=O)C(C)(C)C)nc(Cl)c2n1Cc1ccc(Cl)cc1 [MMV688704] | – | – | 83.23 | 53.57 | –
38 | CON=C(C(=O)OC)c1ccccc1CON=C(C)c1cccc(C(F)(F)F)c1 [MMV688754, Trifloxystrobin] | 67.6 | -1.92 | – | – | –
39 | O=[N+]([O-])c1cn2c(n1)OC[C@@H](OCc1ccc(OC(F)(F)F)cc1)C2 [MMV688755] | – | – | 26.38 | 0.45 | –
40 | CC(=O)NC[C@H]1CN(c2ccc(N3CCSCC3)c(F)c2)C(=O)O1 [MMV688756, Sutezolid, reference compound] | 88.9 | 64.5 | – | – | –
41 | CS(=O)(=O)c1ccc(C(=O)N(CC2CCCO2)c2nc3ccccc3s2)cc1[N+](=O)[O-] (centres unmarked) [MMV688761] | – | – | 39.52 | -1.44 | –
42 | c1ccc(-c2[nH]c3ccccc3c2C(c2ccccn2)N2CCCC2)cc1 (centres unmarked) [MMV688762] | – | – | 73.33 | 84.34 | –
43 | CNc1nnc(Sc2cnn(-c3ccccc3)c(=O)c2Cl)s1 [MMV688763] | – | – | -1.63 | -0.71 | 0.38
44 | COc1ccc(-c2onc(C(F)(F)F)c2-c2ccc(Cl)cc2)c(O)c1 [MMV688766] | – | – | 82.40 | -2.36 | –
45 | Cc1[nH]c2ccccc2c1C(c1cccs1)N1CCN(C)CC1 (centres unmarked) [MMV688768] | – | – | 75.96 | -1.33 | –
46 | Cc1ccccc1C(=O)N1NC(=Nc2ccccc2)SC1(C)C [MMV688771] | – | – | 70.08 | 37.89 | –
47 | O=C(Cn1ccnc1[N+](=O)[O-])NCc1ccccc1 [MMV688773, Benznidazole, reference compound] | 110 | 132 | – | – | –
48 | CC[C@@H]([C@H](C)O)n1ncn(-c2ccc(N3CCN(c4ccc(OC[C@@H]5CO[C@@](Cn6cncn6)(c6ccc(F)cc6F)C5)cc4)CC3)cc2)c1=O [MMV688774, Posaconazole, reference compound] | 31.3 | -1.25 | – | – | –

Reference: PMC6057649, “Development of NanoLuc-PEST expressing Leishmania mexicana as a new drug discovery tool for axenic- and intramacrophage-based assays” (PLoS Neglected Tropical Diseases, 2018)
